US20070037821A1, “Nitrosated glutamic acid compounds, compositions and methods of use” (NITROMED, INC., priority 2003, published 2007)

melting point | SMILES
137 to 139 °C | Cl.N[C@@H](CCC(=O)OCCCO[N+](=O)[O-])C(=O)O
132 to 135 °C | CC(C)(COC(=O)CC[C@H](N)C(=O)O)CO[N+](=O)[O-].Cl
135 to 138 °C | Cl.N[C@@H](CCC(=O)OCc1ccc(CO[N+](=O)[O-])cc1)C(=O)O
70 to 72 °C (dec.) | Cl.N[C@@H](CCC(=O)N1CCCC(CO[N+](=O)[O-])C1)C(=O)O (some centres unmarked)
90 to 94 °C | Cl.N[C@@H](CCC(=O)OCCCC(CO[N+](=O)[O-])O[N+](=O)[O-])C(=O)O (some centres unmarked)
107 to 110 °C | Cl.N[C@@H](CCC(=O)OCC#CCO[N+](=O)[O-])C(=O)O
139 °C (dec.) | Cl.N[C@@H](CCC(=O)OC(CO[N+](=O)[O-])CO[N+](=O)[O-])C(=O)O
57 to 60 °C | Cl.N[C@@H](CCC(=O)NCCCO[N+](=O)[O-])C(=O)O
65 to 68 °C | CC(C)(CNC(=O)CC[C@H](N)C(=O)O)CO[N+](=O)[O-].Cl
137 to 140 °C | Cl.N[C@@H](CCC(=O)N1CCC(CCO[N+](=O)[O-])CC1)C(=O)O
160 to 162 °C | Cl.N[C@@H](CCC(=O)O[C@H]1CO[C@H]2[C@@H]1OC[C@H]2O[N+](=O)[O-])C(=O)O (stereo in doubt)
